Assay results as given in patent US20240075087A1, “COMPOSITIONS AND METHODS COMPRISING HEMP EXTRACT FOR THE TREATMENT OF ANIMALS IN NEED” (Portland Technology Holdings LLC, priority 2021, published 2024).
≈ marks a conversion by molar mass, not a printed value. Counter-ions that a name gives are not always drawn.

Assays:
[1] = Pharmacokinetics of three oral forms of CBD-rich hemp extract in dogs (serum LC-MS/MS); conditions: oral hemp extract forms 2 mg/kg CBD/CBDA
From the text: The pharmacokinetics of cannabidiol (CBD), cannabidiolic acid (CBDA), Δ9-tetrahydrocannabinol (THC), and tetrahydrocannabinolic acid (THCA) on three oral forms of CBD-rich hemp extract that contained near equal amounts of CBD and CBDA, and minor amounts (<0.3% by weight) of THC and THCA in dogs were studied. The metabolized psychoactive component of THC, 11-hydroxy-Δ9-tetrahydrocannabinol (11-OH-THC) and CBD metabolites 7-hydroxycannabidiol (7-OH-CBD) and 7-nor-7-carboxycannabidiol (7-COOH-CBD) were also assessed to better understand the pharmacokinetic differences between three formulations regarding THC and CBD, and their metabolism. Six purpose-bred female beagles were utilized for study purposes, each having an initial 7-point, 24-h pharmacokinetic study performed using a dose of 2 mg/kg body weight of CBD/CBDA (˜1 mg/kg CBD and ˜1 mg/kg CBDA). Dogs were then dosed every 12 h for 2 weeks and had further serum analyses at weeks 1 and 2, 6 h after the morning dose to assess serum cannabinoids. Serum was analyzed for each cannabinoid or cannabinoid metabolite using liquid chromatography and tandem mass spectroscopy (LC-MS/MS).

CMT12 cell line = conditions: 48 hours MTT
Protocol: (§1) CMT12, 17-71 and D17 cells are plated at a density of 2500 cells per well in 96-well tissue culture-treated plates (Laboratory Product Sales, Rochester, New York). All cell lines are treated with identical concentrations of the pure CBD ([…]) and various concentrations of doxorubicin or vincristine. The concentration of doxorubicin varies between cell lines in order to achieve between 20% and 80% proliferation inhibition. The cell lines are treated with serial dilutions of doxorubicin as follows; CMT12 and D17 (0.067-2 μM) and 17-71 (0.0167-0.5 μM). Methanol is used as a vehicle control for all CBD treatments and sterile water for doxorubicin and vincristine at the highest doses used to represent the vehicle control treated wells. Cells are then incubated for 48 hours prior to performing MTT assays, as previously described. Wells treated with the vehicle control are considered to represent 100% proliferating cells in triplicate over three experiments. Percent viable cells for each specific combination are averaged and reported as mean percent proliferation+/— SD for further CI evaluation.
(§2) Raw data from MTT proliferation assays and trypan blue exclusion assays (individual optical density of each well) are normalized to the vehicle control treatment for each cell line, considered to represent 100% proliferating cells (single or combined treatment). The percent proliferating cells is determined by comparing optical density readings or live counts, respectively, of treatment wells at each concentration compared with vehicle control wells in each cell line.
(§3) The compound interactions of chemotherapy and CBD treatment in the CI studies are calculated by multiple drug effect analysis using Compusyn software (v.2; Compusyn Inc, Paramus, New Jersey) which employs the median equation principle according to the methodology described by Chou and Talalay to determine a CI value by the Formula I (Chou T C, Drug combination studies and their synergy quantification using the Chou-Talalay method, Cancer Res., 2010, 70(2), pp. 440-446, which is incorporated herein by reference in its entirety):
(§4) where (D)1 and (D)2 are the doses of both compounds in combination and (Dx)1 and (Dx)2 are the doses of each compound alone at x percent of inhibition. CI values≤0.9 indicate synergism, a CI value>0.9 and <1.1 indicates an additive effect, and CI values≥1.1 indicate antagonism.

D17 cell line = conditions: 48 hours MTT
Protocol: as §1, §2, §3, §4

canine P-glycoprotein = molecular target: T1, canine P-glycoprotein (Canis lupus familiaris, UniProt C0KKU9); experiment: P-glycoprotein competitive transport assay (rhodamine 123, MDCK PGP cells); type: in vitro ADME; conditions: rhodamine competition, CBD at 1000 ng/mL
T1 construct: host or cells: MDCK PGP cells (canine P-gp expressing cell line)
T1 sequence (C0KKU9 1-1281): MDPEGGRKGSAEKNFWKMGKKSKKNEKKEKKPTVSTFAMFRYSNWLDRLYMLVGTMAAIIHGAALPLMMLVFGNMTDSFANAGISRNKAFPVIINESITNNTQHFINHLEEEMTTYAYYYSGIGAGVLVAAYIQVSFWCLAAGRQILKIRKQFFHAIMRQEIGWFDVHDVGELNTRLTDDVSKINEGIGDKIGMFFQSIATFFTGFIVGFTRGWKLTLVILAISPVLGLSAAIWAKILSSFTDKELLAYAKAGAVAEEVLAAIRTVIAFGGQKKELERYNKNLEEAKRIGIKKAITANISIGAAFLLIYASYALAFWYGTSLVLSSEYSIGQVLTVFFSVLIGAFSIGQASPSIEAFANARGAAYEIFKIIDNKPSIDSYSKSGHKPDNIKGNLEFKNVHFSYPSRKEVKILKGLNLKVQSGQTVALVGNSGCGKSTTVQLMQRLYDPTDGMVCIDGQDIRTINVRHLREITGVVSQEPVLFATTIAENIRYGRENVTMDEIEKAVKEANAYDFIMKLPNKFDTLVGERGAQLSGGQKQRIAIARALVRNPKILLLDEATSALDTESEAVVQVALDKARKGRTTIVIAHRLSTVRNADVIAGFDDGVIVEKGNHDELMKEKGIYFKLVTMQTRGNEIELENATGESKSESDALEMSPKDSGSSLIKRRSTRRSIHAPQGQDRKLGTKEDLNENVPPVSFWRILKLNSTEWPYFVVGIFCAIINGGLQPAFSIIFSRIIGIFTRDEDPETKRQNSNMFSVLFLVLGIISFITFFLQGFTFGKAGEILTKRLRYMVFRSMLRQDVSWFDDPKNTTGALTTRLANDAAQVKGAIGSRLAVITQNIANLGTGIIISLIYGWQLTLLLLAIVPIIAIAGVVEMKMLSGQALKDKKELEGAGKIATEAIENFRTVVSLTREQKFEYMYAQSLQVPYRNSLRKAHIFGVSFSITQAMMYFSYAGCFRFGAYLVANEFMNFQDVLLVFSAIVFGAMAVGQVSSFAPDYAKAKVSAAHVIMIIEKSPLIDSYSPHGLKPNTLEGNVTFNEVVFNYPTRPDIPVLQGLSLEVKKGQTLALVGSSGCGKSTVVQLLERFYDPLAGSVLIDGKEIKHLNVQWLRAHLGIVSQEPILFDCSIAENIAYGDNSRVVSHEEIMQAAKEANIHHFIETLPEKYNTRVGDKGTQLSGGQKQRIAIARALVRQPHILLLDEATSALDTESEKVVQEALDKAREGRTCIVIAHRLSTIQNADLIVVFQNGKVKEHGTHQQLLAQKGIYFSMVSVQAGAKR
Protocol: In this second study, a competitive P-gp substrate assay incorporating a canine P-gp expressing cell line is used to assess each test compound's ability to compete with the P-gp substrate rhodamine 123. Each concentration is tested on 3 separate days with same-day duplicates. Positive controls and negative controls are included in each run.
Results for each concentration of test compound evaluated are reported as non-P-gp substrate, weak P-gp substrate, moderate P-gp substrate, or strong P-gp substrate. The concentrations for CBD and CBDA are as follows: 10 ng/mL, 100 ng/mL and 1,000 ng/mL.
A competitive P-gp substrate assay using a canine P-gp expressing cell line was used to assess CBDA and/or CBD as a substrate for canine P-glycoprotein.

CYP3A12 = CYP3A12 (Canis lupus familiaris, UniProt P24463); experiment: CYP3A12 activity inhibition in pooled dog liver microsomes; conditions: CYP3A12; no preincubation vs 20 min preincubation; 10 μM
Sequence of CYP3A12 (P24463 whole entry): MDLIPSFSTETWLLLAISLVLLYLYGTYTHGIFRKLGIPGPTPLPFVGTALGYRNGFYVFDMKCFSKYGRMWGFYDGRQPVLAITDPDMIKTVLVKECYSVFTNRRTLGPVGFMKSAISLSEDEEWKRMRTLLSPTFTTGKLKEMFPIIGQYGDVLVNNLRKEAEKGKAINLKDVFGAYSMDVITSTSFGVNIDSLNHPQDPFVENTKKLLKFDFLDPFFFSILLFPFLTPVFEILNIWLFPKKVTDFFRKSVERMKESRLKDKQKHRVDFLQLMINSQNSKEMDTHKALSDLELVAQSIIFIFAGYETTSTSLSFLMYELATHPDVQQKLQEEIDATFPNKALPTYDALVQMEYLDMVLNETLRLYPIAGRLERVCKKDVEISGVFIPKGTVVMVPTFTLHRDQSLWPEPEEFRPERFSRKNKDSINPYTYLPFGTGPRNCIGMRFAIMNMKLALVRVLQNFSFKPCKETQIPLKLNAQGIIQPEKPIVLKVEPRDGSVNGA
Protocol: (§5) Inhibition potency (i.e. IC50) is determined by measuring the decrement in metabolism of P450-specific marker activities in pooled dog liver microsomes with increasing concentrations of CBD, CBDA, and hemp extracts. P450-specific markers include bupropion 6-hydroxylation (CYP2B11), dextromethorphan 0-demethylation (CYP2D15) and omeprazole sulfoxidation (CYP3A12). IC50 values are determined both with and without preincubation of liver microsomes with potential inhibitor to evaluate whether there is mechanism-based time-dependent inhibition.
(§6) The following parameters are assessed: (1) the rates of CBD and CBDA metabolism by dog liver microsomes and by 11 recombinant canine P450 enzymes; (2) the predicted percent contribution of each P450 to total CBD and CBDA metabolism in dog liver; and (3) IC50 values for inhibition of CYP2B11, CYP2D15 and CYP3A12 metabolism in dog liver, both with and without inhibitor preincubation.
(§7) FIGS. 13-15 show activity assays for CYP3A12 (FIGS. 13A and 13B), CYP2B11 (FIGS. 14A and 14B), and CYP2D15 (FIGS. 15A and 15B). Assays using either no preincubation (FIGS. 13A, 14A, and 15A) or 20 minutes of preincubation (FIGS. 13B, 14B, and 15B) were performed.

CYP2B11 = molecular target: T2, CYP2B11 (Canis lupus familiaris, UniProt P24460); experiment: CYP2B11 activity inhibition in pooled dog liver microsomes; conditions: CYP2B11; no preincubation vs 20 min preincubation; 10 μM
T2 sequence (P24460 1-494): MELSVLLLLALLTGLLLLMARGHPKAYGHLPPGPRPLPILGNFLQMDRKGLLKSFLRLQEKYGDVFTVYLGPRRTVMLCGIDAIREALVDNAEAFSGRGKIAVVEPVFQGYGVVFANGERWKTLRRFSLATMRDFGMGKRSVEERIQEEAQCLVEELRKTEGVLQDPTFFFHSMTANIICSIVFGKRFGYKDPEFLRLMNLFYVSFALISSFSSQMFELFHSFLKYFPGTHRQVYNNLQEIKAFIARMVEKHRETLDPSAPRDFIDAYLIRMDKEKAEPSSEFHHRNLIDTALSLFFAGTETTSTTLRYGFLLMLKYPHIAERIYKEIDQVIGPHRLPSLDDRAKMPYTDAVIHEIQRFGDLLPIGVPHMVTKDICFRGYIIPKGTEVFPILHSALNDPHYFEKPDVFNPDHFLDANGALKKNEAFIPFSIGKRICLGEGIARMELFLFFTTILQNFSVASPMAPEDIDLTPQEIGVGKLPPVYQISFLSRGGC
Protocol: as §5, §6, §7

CYP2D15 = molecular target: T3, CYP2D15 (Canis lupus familiaris, UniProt Q29473); experiment: CYP2D15 activity inhibition in pooled dog liver microsomes; type: in vitro ADME; conditions: no preincubation vs 20 min preincubation, 10 μM
T3 construct: P450-specific marker activities in pooled dog liver microsomes; from tissue; host or cells: pooled dog liver microsomes
T3 sequence (Q29473 1-500): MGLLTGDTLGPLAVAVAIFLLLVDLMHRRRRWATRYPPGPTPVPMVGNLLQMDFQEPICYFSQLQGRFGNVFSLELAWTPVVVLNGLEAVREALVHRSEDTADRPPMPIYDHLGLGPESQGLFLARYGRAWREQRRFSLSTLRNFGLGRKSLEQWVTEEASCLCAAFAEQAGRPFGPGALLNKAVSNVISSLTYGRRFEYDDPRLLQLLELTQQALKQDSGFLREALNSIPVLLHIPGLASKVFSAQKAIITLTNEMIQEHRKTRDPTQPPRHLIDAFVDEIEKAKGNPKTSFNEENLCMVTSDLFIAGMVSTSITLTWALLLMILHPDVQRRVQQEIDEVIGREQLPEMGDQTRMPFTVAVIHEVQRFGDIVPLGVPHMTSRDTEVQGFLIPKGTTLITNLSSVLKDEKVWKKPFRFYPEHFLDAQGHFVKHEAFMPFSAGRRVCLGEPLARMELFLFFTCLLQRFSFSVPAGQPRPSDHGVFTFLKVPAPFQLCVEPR

[2] = system: 17-71 B cell lymphoma cell line; experiment: 48 hours MTT proliferation assay, 17-71; type: cell-based, canine; conditions: pure compound
Protocol: (§8) 3-(4,5-Dimethylthaizol-2-yl)-2,5-diphenyltetrazolium bromide (MTT) assays are performed on all previously described cell lines; CMT12, HMPOS, D17, Abrams and 17-71. […] Cells are treated with vehicle (methanol or ethanol/DMSO mix) or various concentrations of the CBD, CBDA or CBD-rich hemp extract ranging from 0.42 to 20 μg/mL in serial dilution for 48 hours. MTT assays are performed after 48 hours of treatment by adding 20 μL of MTT dye ([…] filtered 5 mg/mL in phosphate-buffered saline [PBS]) to each well and incubating at 37° C. in 5% CO2 for 2 hours. The media is then aspirated, washed once with 200 μL of PBS and then solubilized in 200 μL of ethanol. Immediate analysis of the optical density of each well is performed using a spectrophotometric plate reader (Epoch; Biotek, Winooski, Vermont) at a wavelength of 570 nm as previously described (e.g., Vega-Avila E and Pugsley M K, An overview of colorimetric assay methods used to assess survival or proliferation of mammalian cells, Proc West Pharmacol Soc., 2011, 54, pp. 10-14 which is incorporated herein by reference in its entirety). The percent proliferating cells of control for each concentration is averaged and reported as a mean+/—SD from triplicate wells over three experiments.
(§9) For CBD, CBDA and hemp extract concentrations needed to obtain a 50% inhibition of cell proliferation (IC50) are then calculated across experiments by Probit analysis using XLFit5 software (IDBS, Guildford, United Kingdom) for reporting the results for each cell line.

[3] = system: CMT12 mammary gland carcinoma cell line; experiment: 48 hours MTT proliferation assay, CMT12; type: cell-based, canine; conditions: pure compound
Protocol: as §8, §9

[4] = system: Abrams osteosarcoma cell line; experiment: 48 hours MTT proliferation assay, Abrams; type: cell-based, canine; conditions: pure compound
Protocol: as §8, §9

[5] = system: D17 osteosarcoma cell line; experiment: 48 hours MTT proliferation assay, D17; type: cell-based, canine; conditions: pure compound
Protocol: as §8, §9

[6] = system: HMPOS osteosarcoma cell line; experiment: 48 hours MTT proliferation assay, HMPOS; type: cell-based, canine; conditions: pure compound
Protocol: as §8, §9

With CCCCCc1cc(O)c2c(c1)OC(C)(C)[C@@H]1CCC(C)=C[C@@H]21 [THC, delta-9-tetrahydrocannabinol] the THC serum concentration [1] was “below the quantitation limit of the assay for nearly all samples”.
With COc1cccc2c1C(=O)c1c(O)c3c(c(O)c1C2=O)C[C@@](O)(C(=O)CO)C[C@@H]3O[C@H]1C[C@H](N)[C@H](O)[C@H](C)O1 [doxorubicin, doxorubicin hydrochloride] the “inhibitory concentrations from IC20-IC80” value (CMT12 cell line; doxorubicin alone) was 500 to 2000 nM and the “inhibitory concentrations from IC20-IC80” value (D17 cell line; doxorubicin alone) was 500 to 2000 nM.
With N.N.O=C([O-])C1(C(=O)[O-])CCC1.[Pt+2] [Carboplatin] the “Mean MFI ratio compound:vehicle” value (canine P-glycoprotein) was 0.74 and the “MFI in MDCK PGP cells” value (canine P-glycoprotein; rhodamine alone 215) was 160.
In the case of C=C(C)[C@@H]1CCC(C)=C[C@H]1c1c(O)cc(CCCCC)c(C(=O)O)c1O [CBDA, cannabidiolic acid], the “time-dependent inhibition (TDI)” value (CYP3A12) is reported as “did not show TDI”, the “time-dependent inhibition (TDI)” value (CYP2B11) is reported as “did not show TDI” and the “time-dependent inhibition (TDI)” value (CYP2D15) is reported as “did not show TDI”. The IC50 ([2]; Canis lupus familiaris, B-cell, read-out: IC50 (Probit)) was 15.1 µg/mL (≈ 42.1 µM), the “concentrations that significantly diminished proliferation vs vehicle control” value ([2]; P<0.05) was at least 5 µg/mL and the “IC50 (Probit)” value [3] was “could not be determined since 50% growth inhibition is not achieved in the assay”. For the same compound, the “concentrations that significantly diminished proliferation vs vehicle control” value ([3]; P<0.05) was at least 10 µg/mL, the “IC50 (Probit)” value [4] was “could not be calculated because of lack of growth inhibition” and the “concentrations that significantly diminished proliferation vs vehicle control” value ([4]; P<0.05) was 20 µg/mL. For the same compound, the “IC50 (Probit)” value [5] was “could not be calculated because of lack of growth inhibition”, the “concentrations that significantly diminished proliferation vs vehicle control” value ([5]; P<0.05) was 20 µg/mL and the “IC50 (Probit)” value [6] was “could not be calculated because of lack of growth inhibition”. The “concentrations that significantly diminished proliferation vs vehicle control” value ([6]; P<0.05) was 20 µg/mL.
CC[C@]1(O)C[C@H]2CN(CCc3c([nH]c4ccccc34)[C@@](C(=O)OC)(c3cc4c(cc3OC)N(C=O)[C@H]3[C@@](O)(C(=O)OC)[C@H](OC(C)=O)[C@]5(CC)C=CCN6CC[C@]43[C@@H]65)C2)C1 [vincristine, vincristine sulfate] gave an IC20-IC80 values (CMT12 cell line; vincristine alone) of 1.7 to 6.8 nM and an IC20-IC80 values (D17 cell line; vincristine alone) of 1.7 to 6.8 nM.
